Here are results for 18 compounds from PubChem BioAssay AID256 (DTP/NCI, 2004).

Each structure is given as a SMILES string. Where “and” joins values, the source holds several entries; their conditions need not be identical. Identical values can stand only once. Toxic doses and inconclusive results are not listed.

For the assay, the system named is CD2F1 mice, L1210 leukemia ip, survival T/C. In words: NCI In Vivo Anticancer Drug Screen. Data for tumor model L1210 Leukemia (intraperitoneal) in CD2F1 (CDF1) mice. The settings on record: higher = longer survival. In outline:
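Vehicle-treated tumor-bearing mice served as controls (C) for compound-treated mice (T). Reported figure is T divided by C.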

[1] abbreviates: endpoint: mean survival time, dose: 100.0 mg/kg/injection, schedule: Q01DX009 (ip), vehicle: saline with Tween-80.
Setting [2] is: endpoint: mean survival time, dose: 100.0 mg/kg/injection, schedule: Q04DX003 (ip), vehicle: saline with Tween-80.
Setting [3] is: endpoint: mean survival time, dose: 200.0 mg/kg/injection, schedule: Q01DX009 (ip), vehicle: saline with Tween-80.
Where [4] appears, read: endpoint: mean survival time, dose: 200.0 mg/kg/injection, schedule: Q04DX003 (ip), vehicle: saline with Tween-80.
The mark [5] stands for this setting: endpoint: mean survival time, dose: 400.0 mg/kg/injection, schedule: Q04DX003 (ip), vehicle: saline with Tween-80.
The mark [6] stands for this setting: endpoint: mean survival time, dose: 100.0 mg/kg/injection, schedule: Q04DX002 (ip), vehicle: saline with Tween-80.
[7] abbreviates: endpoint: mean survival time, dose: 200.0 mg/kg/injection, schedule: Q04DX002 (ip), vehicle: saline with Tween-80.

`CC(CP(=O)(c1ccccc1)c1ccccc1)C(O)(C(=O)c1ccccc1)c1ccccc1` (stereo not drawn): the T/C under setting [1] was 95 % of control; the T/C under setting [2] is 97 % of control; the T/C under setting [3] is 97 % of control; the T/C under setting [4] was 94 % of control; the T/C under setting [5] is 102 % of control.
Take `C=C=CCCCCOC1CCCCO1` (stereo not drawn): the T/C was 89 % of control (endpoint: mean survival time, dose: 100.0 mg/kg/injection, schedule: Q01DX001 (ip), vehicle: saline with Tween-80); 89 % of control (endpoint: mean survival time, dose: 200.0 mg/kg/injection, schedule: Q01DX001 (ip), vehicle: saline with Tween-80); 89 % of control (endpoint: mean survival time, dose: 400.0 mg/kg/injection, schedule: Q01DX001 (ip), vehicle: saline with Tween-80).
In the case of `O=C(Nc1cccc(I)c1)OCCCl`, the T/C runs as follows: under setting [6], 89 % of control; under setting [7], 92 % of control; (endpoint: mean survival time, dose: 400.0 mg/kg/injection, schedule: Q04DX002 (ip), vehicle: saline with Tween-80) 92 % of control.
Turning to `CC(C)(CO)COC(=O)NC1=C(N2CC2)C(=O)C(NC(=O)OCC(C)(C)CO)=C(N2CC2)C1=O`, the T/C runs as follows: (endpoint: mean survival time, dose: 0.75 mg/kg/injection, schedule: Q01DX009 (ip), vehicle: water) 119 % of control and 121 % of control; (endpoint: mean survival time, dose: 1.5 mg/kg/injection, schedule: Q01DX009 (ip), vehicle: water) 122 % of control and 106 % of control; (endpoint: mean survival time, dose: 12.0 mg/kg/injection, schedule: Q01DX009 (ip), vehicle: water) 166 % of control and 169 % of control.
Consider `COC1OC(CO)C(n2cnc3c2c(=O)n(C)c(=O)n3C)C=C1NC(C)=O` (stereo not drawn), for which the T/C runs as follows: (endpoint: mean survival time, dose: 12.5 mg/kg/injection, schedule: Q01DX005 (ip), vehicle: distilled water + Tween-80) 100 % of control; (endpoint: mean survival time, dose: 12.5 mg/kg/injection, schedule: Q01DX005 (ip), vehicle: water) 88 % of control; (endpoint: mean survival time, dose: 25.0 mg/kg/injection, schedule: Q01DX005 (ip), vehicle: distilled water + Tween-80) 96 % of control; (endpoint: mean survival time, dose: 25.0 mg/kg/injection, schedule: Q01DX005 (ip), vehicle: water) 96 % of control; (endpoint: mean survival time, dose: 50.0 mg/kg/injection, schedule: Q01DX005 (ip), vehicle: water) 92 % of control; (endpoint: mean survival time, dose: 100.0 mg/kg/injection, schedule: Q01DX005 (ip), vehicle: distilled water + Tween-80) 92 % of control. The T/C by setting is: (endpoint: mean survival time, dose: 100.0 mg/kg/injection, schedule: Q01DX005 (ip), vehicle: water) 103 % of control; (endpoint: mean survival time, dose: 200.0 mg/kg/injection, schedule: Q01DX005 (ip), vehicle: distilled water + Tween-80) 100 % of control; (endpoint: mean survival time, dose: 200.0 mg/kg/injection, schedule: Q01DX005 (ip), vehicle: water) 96 % of control.
For the compound `Cc1ccccc1C(O)(c1ccccc1C)c1ccccc1C`, the T/C is, setting by setting: (endpoint: mean survival time, dose: 100.0 mg/kg/injection, schedule: Q04DX003 (ip), vehicle: acetone) 96 % of control; (endpoint: mean survival time, dose: 200.0 mg/kg/injection, schedule: Q04DX003 (ip), vehicle: acetone) 98 % of control; (endpoint: mean survival time, dose: 400.0 mg/kg/injection, schedule: Q04DX003 (ip), vehicle: acetone) 98 % of control.
`Nc1nc2ccc(NCc3ccc(C(=O)NC(CCC(=O)O)C(=O)O)cc3)cc2c(=O)[nH]1` (stereo not drawn): the T/C reads like this: (endpoint: median survival time, dose: 6.25 mg/kg/injection, schedule: Q01DX009 (ip), vehicle: saline with Tween-80) 100 % of control and 101 % of control; (endpoint: median survival time, dose: 12.5 mg/kg/injection, schedule: Q01DX009 (ip), vehicle: saline with Tween-80) 100 % of control and 108 % of control (2×); (endpoint: median survival time, dose: 25.0 mg/kg/injection, schedule: Q01DX009 (ip), vehicle: saline with Tween-80) 115 % of control and 118 % of control and 119 % of control; (endpoint: median survival time, dose: 50.0 mg/kg/injection, schedule: Q01DX009 (ip), vehicle: saline with Tween-80) 155 % of control.
As for `[N-]=[N+]=CC(=O)NCC(=O)NCCO`, the T/C reads like this: (endpoint: mean survival time, dose: 50.0 mg/kg/injection, schedule: Q01DX001 (ip), vehicle: other) 101 % of control; (endpoint: mean survival time, dose: 100.0 mg/kg/injection, schedule: Q01DX001 (ip), vehicle: other) 103 % of control; (endpoint: mean survival time, dose: 200.0 mg/kg/injection, schedule: Q01DX001 (ip), vehicle: other) 106 % of control; (endpoint: mean survival time, dose: 200.0 mg/kg/injection, schedule: Q01DX009 (ip), vehicle: other) 103 % of control; (endpoint: mean survival time, dose: 400.0 mg/kg/injection, schedule: Q01DX001 (ip), vehicle: other) 109 % of control; (endpoint: mean survival time, dose: 600.0 mg/kg/injection, schedule: Q01DX009 (ip), vehicle: other) 121 % of control. The T/C (endpoint: mean survival time, dose: 1000.0 mg/kg/injection, schedule: Q01DX009 (ip), vehicle: other) was 114 % of control.
For the compound `NC1CCCCC(O)CCCC1` (stereo not drawn), the T/C runs as follows: (endpoint: mean survival time, dose: 12.5 mg/kg/injection, schedule: Q01DX001 (ip), vehicle: saline with Tween-80) 95 % of control; (endpoint: mean survival time, dose: 25.0 mg/kg/injection, schedule: Q01DX001 (ip), vehicle: saline with Tween-80) 92 % of control; (endpoint: mean survival time, dose: 50.0 mg/kg/injection, schedule: Q01DX001 (ip), vehicle: saline with Tween-80) 97 % of control.
For the compound `O=C(O)C(O)c1ccccc1` (stereo not drawn), the T/C runs as follows: (endpoint: mean survival time, dose: 100.0 mg/kg/injection, schedule: Q04DX002 (ip), vehicle: saline) 101 % of control; (endpoint: mean survival time, dose: 200.0 mg/kg/injection, schedule: Q04DX002 (ip), vehicle: saline) 114 % of control.
Consider `O=C(Nc1ccc([N+](=O)[O-])cc1)OCc1ccccc1`, for which the T/C reads like this: (endpoint: mean survival time, dose: 50.0 mg/kg/injection, schedule: Q04DX002 (ip), vehicle: saline with Tween-80) 104 % of control; under setting [6], 100 % of control; under setting [7], 108 % of control.
On to `COC(=O)CCC1c2[nH]c3ccccc3c2CCN1C` (stereo not drawn), for which the T/C was 93 % of control under setting [2], 102 % of control under setting [4] and 102 % of control under setting [5].
As to `CNC(=O)OCCN(C)OC`, the T/C is 95 % of control (endpoint: mean survival time, dose: 100.0 mg/kg/injection, schedule: Q04DX003 (ip), vehicle: saline); 98 % of control (endpoint: mean survival time, dose: 200.0 mg/kg/injection, schedule: Q04DX003 (ip), vehicle: saline); 93 % of control (endpoint: mean survival time, dose: 400.0 mg/kg/injection, schedule: Q04DX003 (ip), vehicle: saline).
As for `CC12CCC3C4CCC(=O)C(O)=C4CCC3C1CCC2OC(=O)CCC1CCCC1` (stereo not drawn), the T/C by setting is: (endpoint: mean survival time, dose: 100.0 mg/kg/injection, schedule: Q04DX003 (sc), vehicle: steriod suspending solution) 101 % of control; (endpoint: mean survival time, dose: 200.0 mg/kg/injection, schedule: Q04DX003 (sc), vehicle: steriod suspending solution) 104 % of control; (endpoint: mean survival time, dose: 400.0 mg/kg/injection, schedule: Q04DX003 (sc), vehicle: steriod suspending solution) 104 % of control.
For the compound `Cc1ccc(O)c2ncccc12`, the T/C was 114 % of control under setting [1]; 97 % of control under setting [3]; 103 % of control (endpoint: mean survival time, dose: 400.0 mg/kg/injection, schedule: Q01DX009 (ip), vehicle: saline with Tween-80).
Turning to `O=C(O)c1cc2ccccc2s1`, the T/C was 98 % of control (endpoint: mean survival time, dose: 100.0 mg/kg/injection, schedule: Q01DX001 (ip), vehicle: saline); 96 % of control (endpoint: mean survival time, dose: 200.0 mg/kg/injection, schedule: Q01DX001 (ip), vehicle: saline); 92 % of control (endpoint: mean survival time, dose: 400.0 mg/kg/injection, schedule: Q01DX001 (ip), vehicle: saline).
For the compound `c1cn[nH]c1`, the T/C is 103 % of control and 105 % of control (endpoint: median survival time, dose: 12.5 mg/kg/injection, schedule: Q01DX009 (ip), vehicle: saline + alcohol); 95 % of control (endpoint: median survival time, dose: 12.5 mg/kg/injection, schedule: Q01DX009 (ip), vehicle: saline); 101 % of control and 110 % of control (endpoint: median survival time, dose: 25.0 mg/kg/injection, schedule: Q01DX009 (ip), vehicle: saline + alcohol); 102 % of control (endpoint: median survival time, dose: 25.0 mg/kg/injection, schedule: Q01DX009 (ip), vehicle: saline); 121 % of control and 105 % of control (endpoint: median survival time, dose: 50.0 mg/kg/injection, schedule: Q01DX009 (ip), vehicle: saline + alcohol); 112 % of control (endpoint: median survival time, dose: 50.0 mg/kg/injection, schedule: Q01DX009 (ip), vehicle: saline). The T/C (endpoint: median survival time, dose: 100.0 mg/kg/injection, schedule: Q01DX009 (ip), vehicle: saline + alcohol) was 117 % of control; the T/C (endpoint: median survival time, dose: 200.0 mg/kg/injection, schedule: Q01DX009 (ip), vehicle: saline + alcohol) was 90 % of control and 102 % of control; the T/C (endpoint: median survival time, dose: 200.0 mg/kg/injection, schedule: Q01DX009 (ip), vehicle: saline) is 90 % of control.
`S=C(NCc1ccccc1)Nc1ncn[nH]1`: the T/C by setting is: (endpoint: mean survival time, dose: 12.5 mg/kg/injection, schedule: Q01DX001 (ip), vehicle: carboxymethylcellulose (CMC)) 97 % of control; (endpoint: mean survival time, dose: 25.0 mg/kg/injection, schedule: Q01DX001 (ip), vehicle: carboxymethylcellulose (CMC)) 89 % of control; (endpoint: mean survival time, dose: 50.0 mg/kg/injection, schedule: Q01DX001 (ip), vehicle: carboxymethylcellulose (CMC)) 86 % of control; (endpoint: mean survival time, dose: 100.0 mg/kg/injection, schedule: Q01DX001 (ip), vehicle: carboxymethylcellulose (CMC)) 86 % of control.
